Test [1] relates to HCT15 (HER2-positive colorectal cancer cell line). Nature of the test: antiproliferative effect, HCT15. The format is cell-based. The note with it: Homo sapiens, HCT-15, 72 hours.
In test [2] the target is MED23 wild-type (FLAG-tagged) (Homo sapiens, UniProt Q9ULK4). As to the kind of experiment: LC-MS/MS protein-small molecule interaction, wild-type MED23. As to conditions: FLAG pulldown, LC-MS/MS. The format is binding. As for the experimental part: HEK293 cells were seeded in a […] and incubated until they reached 70-80% confluency. The cells were transfected with p3Xflag-myc-CMV26-MED23^WT and p3Xflag-myc-CMV26-MED23^D400A/H449G plasmids for 24 hours, followed by lysis to obtain protein extracts. To isolate the candidate compound (YK1) bound to MED23, total lysates were incubated with YK1 for 4 hours and subsequently subjected to pulldown using FLAG-agarose beads (Sigma Aldrich, USA). The precipitated beads were washed at least three times to completely remove unbound compounds. To separate the candidate compound from the precipitated MED23, 50 μL of the sample was extracted with 1 mL of acetonitrile and centrifuged at 13,000 rpm at 4 °C for 10 minutes. The supernatant (1,000 μL) from each sample was transferred to a new tube and dried under nitrogen gas at 37 °C. For YK1 analysis, the residue was dissolved in 50 μL of ACN and vortexed for 10 minutes. […] The mixture was then extracted with 450 μL of ACN by ultrasonic treatment and vortex mixing. The candidate compound bound to MED23 was finally analyzed using an Agilent 6460 triple quadrupole mass spectrometer (Agilent Technologies, USA).
Chain of MED23 wild-type (FLAG-tagged) (Q9ULK4 whole entry): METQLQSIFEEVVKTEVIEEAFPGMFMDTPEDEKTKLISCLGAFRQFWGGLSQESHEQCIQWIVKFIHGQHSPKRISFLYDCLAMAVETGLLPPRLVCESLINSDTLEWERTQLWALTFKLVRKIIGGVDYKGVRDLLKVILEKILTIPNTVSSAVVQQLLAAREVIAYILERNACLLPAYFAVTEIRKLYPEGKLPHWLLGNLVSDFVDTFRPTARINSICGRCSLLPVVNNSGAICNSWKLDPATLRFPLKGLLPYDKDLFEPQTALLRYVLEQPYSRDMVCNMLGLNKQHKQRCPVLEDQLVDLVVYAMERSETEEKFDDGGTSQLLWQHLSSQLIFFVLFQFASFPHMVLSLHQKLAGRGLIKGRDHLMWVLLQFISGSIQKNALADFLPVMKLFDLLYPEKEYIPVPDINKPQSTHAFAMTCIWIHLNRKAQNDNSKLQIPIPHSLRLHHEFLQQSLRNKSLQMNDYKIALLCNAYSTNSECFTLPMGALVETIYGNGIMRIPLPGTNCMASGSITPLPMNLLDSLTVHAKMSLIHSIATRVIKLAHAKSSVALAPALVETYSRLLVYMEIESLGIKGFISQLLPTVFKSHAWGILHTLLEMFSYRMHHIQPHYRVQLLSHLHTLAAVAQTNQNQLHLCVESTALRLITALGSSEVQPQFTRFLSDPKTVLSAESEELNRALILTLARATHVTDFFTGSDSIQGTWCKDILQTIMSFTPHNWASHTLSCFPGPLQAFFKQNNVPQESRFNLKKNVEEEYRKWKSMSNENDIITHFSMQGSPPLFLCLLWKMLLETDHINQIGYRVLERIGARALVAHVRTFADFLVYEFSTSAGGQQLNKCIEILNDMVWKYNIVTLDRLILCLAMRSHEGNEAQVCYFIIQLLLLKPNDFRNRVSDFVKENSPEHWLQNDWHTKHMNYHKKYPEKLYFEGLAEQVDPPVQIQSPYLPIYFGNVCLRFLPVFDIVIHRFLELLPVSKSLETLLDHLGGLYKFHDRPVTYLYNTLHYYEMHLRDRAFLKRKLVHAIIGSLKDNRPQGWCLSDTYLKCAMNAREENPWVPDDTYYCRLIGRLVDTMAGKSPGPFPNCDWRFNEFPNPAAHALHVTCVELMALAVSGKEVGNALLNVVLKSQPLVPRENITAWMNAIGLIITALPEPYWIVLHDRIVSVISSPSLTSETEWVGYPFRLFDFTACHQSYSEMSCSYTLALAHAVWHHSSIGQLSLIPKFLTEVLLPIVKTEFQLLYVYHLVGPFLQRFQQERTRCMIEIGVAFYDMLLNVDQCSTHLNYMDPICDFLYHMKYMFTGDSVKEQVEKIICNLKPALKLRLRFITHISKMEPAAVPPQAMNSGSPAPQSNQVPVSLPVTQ

The target of test [3] is T1, MED23-IRF7 PPI (Homo sapiens, UniProt Q9ULK4).
T1 construct: co-immunoprecipitation of IRF7, probably endogenous
T1 sequence (Q9ULK4 whole entry): as above
As to the kind of experiment: immunoprecipitation, MED23-IRF7 PPI. In kind it is cell-based. On the procedure:
NCI-N87 cells from a gastric cancer cell line were seeded in a 100 mm cell culture dish and cultured until they reached 60-70% confluence. The cultured cells were transfected with p3Xflag-myc-CMV26-empty or p3Xflag-myc-CMV26-MED23^WT plasmids using Lipofectamine® 2000 (Invitrogen, USA). After transfection, YK1 (5 μM) was added 12 hours post-transfection, and the cells were cultured for 12 hours. A total of 750 μg of cell lysate was incubated with 20 μL of FLAG-agarose bead slurry (Sigma Aldrich, USA) on a rotator at 4 °C for 4 hours. The sample was centrifuged at 12,000 rpm for 1 minute to precipitate the beads. After removing the supernatant, the remaining beads were washed three times with 200 μL of lysis buffer (RIPA).
After removing the final supernatant, the beads were eluted by boiling with 2× sample buffer at 98 °C for 5 minutes. The immunoprecipitated proteins were loaded, separated by SDS-PAGE, and analyzed by Western blotting.

The test system of test [4] is HER2 protein. Nature of the test: HER2 protein expression. In kind it is cell-based. The note with it: dose-dependent. On the procedure:
(§1) For western blot analysis, cells were seeded in a 6-well plate and lysed in 1×RIPA lysis buffer (Cell Signaling, USA) containing 1% 0.1 M [COMPOUND LEFT OUT] and 1% 100× protease inhibitor cocktail solution (Genedepot, USA). Total protein levels were standardized using the Pierce™ BCA Protein Assay Kit (Thermo Fisher Scientific, USA) and a microplate reader (Tecan Group Ltd., Switzerland). A total of 20 μg of protein was loaded onto a 10-15% SDS-PAGE acrylamide gel and transferred to a 0.2 μm PVDF membrane (Pall Life Science, USA). The membrane was blocked with 5% skim milk or 5% BSA, and the membrane was cultured with primary antibodies (purchased from Thermo Fisher, Cell Signaling, Santa Cruz, Novus, or MBL) at room temperature for 3 hours or overnight at 4 °C. The blot was washed three times with Tris-buffered saline containing 0.1% Tween20 (1×TBST) and incubated with an HRP-conjugated secondary antibody (GeneTex, USA). Protein bands were detected using ECL solution reagents (GE Healthcare, USA) and the LAS-3000 imaging system (Fuji Photo Film Co., Ltd., Japan), and captured images were analyzed using Multi-Gauge software (Fuji Photo Film Co. Ltd.). The preparation of cell lysates for subsequent analyses was performed using the same method as described for western blot analysis.

Test [5] has as its system NCI-N87 cells. As to the kind of experiment: cell cycle analysis (FACS). In kind it is cell-based. On the procedure: (§2) Specifically, 5×10^5 NCI-N87 cells were seeded in 60 mm dishes and cultured until they reached 70-80% confluence. The cells were treated with varying concentrations of the candidate compound and cultured for 8 hours. The cells were treated with trypsin and then washed with cold PBS (pH 7.4). For cell cycle analysis, the cells were fixed with 70% ethanol and cultured at 4 °C for 30 minutes, followed by staining with FxCycle™ PI/RNase staining solution (Invitrogen™, USA). Cell cycle analysis was performed using a fluorescence-activated cell sorting (FACS) device (BD Biosciences, USA).

Test [6] deals with NCI-N87 cells. As to the kind of experiment: apoptosis analysis (Annexin V, FACS). The format is cell-based. The note with it: dose-dependent. On the procedure: as §2
Cells for apoptosis analysis were prepared using the same method as described for the cell cycle analysis. The cells were treated with trypsin, washed with 1×PBS, and resuspended in each sample using the FITC Annexin V Apoptosis Detection Kit I (BD Pharmingen™). Apoptosis was analyzed using a FACS device.

Test [7] relates to c-PARP, c-caspase 7, bcl-2. As to the kind of experiment: pro- and anti-apoptotic marker levels. The format is cell-based. As for the experimental part:
as §1, with “The preparation of cell lysates for subsequent analyses was performed using the same method as described for western blot analysis.” left out
Specifically, 5×10^5 NCI-N87 cells were seeded in 60 mm dishes and cultured until they reached 70-80% confluence. […] Cell cycle analysis was performed using a fluorescence-activated cell sorting (FACS) device (BD Biosciences, USA).

For test [8], the system named is HER2 and downstream signaling (phosphorylated AKT and MAPK). Nature of the test: HER2 expression and downstream signaling, TZMB-sensitive and -resistant cells. The format is cell-based.
Description: The ability of the candidate compound to overcome trastuzumab resistance was evaluated.
Test [9] has as its system TZMB-resistant cells. Nature of the test: clonal analysis. As to conditions: 14 days; TZMB 10 or 20 μg/mL, YK1 0.5 or 1 μM. In kind it is cell-based. As for the experimental part:
To validate the above results, clonal analysis was performed. […] The incubated cells were fixed with 100% methanol for 1 hour and then stained with 200 μL of crystal violet solution per well. After washing the cells with tap water, images were captured using a ChemiDoc bio-image analyzer (Bio-Rad), and quantification was performed with ImageJ software (NIH, Bethesda, MD, USA). All processes following the fixation were conducted at room temperature.

The IC50 is the concentration at which inhibition is half-maximal. Read a low IC50 as greater potency. `CC(=O)N1N=C(c2cccc(O)c2)CC1c1ccc(Cl)cc1` (centres unmarked) [Compound 15, 1-[5-(4-Chlorophenyl)-3-(3-hydroxyphenyl)-4,5-dihydropyrazol-1-yl]-ethanone]: inhibition in test [1] was half-maximal at 7.66 ± 0.04 µM (IC50). Moreover, the “binding to wild-type MED23” value in [2] is reported as “able to bind to wild-type MED23”. In [3], the “PPI inhibitory effect on MED23-IRF7” value was “did not inhibit these PPIs”. The “HER2 protein expression level” value in test [4] is “significantly downregulate HER2 gene and protein expression levels in a dose-dependent manner”. Also, the “G1 arrest, S and G2/M phases” value in test [5] is “promoted overall G1 arrest, accompanied by a decrease in the S and G2/M phases”. The G1 cell fraction result in test [5] (time- and dose-dependent) is given as “significant increase in the G1 cell fraction”. Also, in test [6], the apoptosis entry is given as “significantly promoted apoptosis in a dose-dependent manner”. Besides, in test [7], the “anti-apoptotic marker bcl-2” value is “reduced the levels of the anti-apoptotic marker bcl-2”; the “pro-apoptotic markers c-PARP and c-caspase 7” value is “induced an increase in the pro-apoptotic markers c-PARP and c-caspase 7”. Moreover, the “HER2 expression and downstream signaling” value in test [8] is “significantly downregulated HER2 expression and downstream signaling, including phosphorylated AKT and MAPK”. In addition, the “effect against TZMB resistance in clonal analysis” value in test [9] is “effective against TZMB resistance”.

Values taken from patent US20260373119A1, “NOVEL COMPOUND, AND COMPOSITION FOR PREVENTING OR TREATING HER2-POSITIVE CANCER, COMPRISING SAME” (EWHA UNIVERSITY - INDUSTRY COLLABORATION FOUNDATION, priority 2022, published 2026).
